One block for each molecule: values may come before it.
Assay: logP (HCOOH)
Assay type: physicochemical
Conditions: for IogP (HCOOH): table after Table 9

SMILES: O=C(Nc1c(NC2CC2)ncnc1-c1ccc(F)cc1)c1cccnc1C(F)(F)F [1-170]
logP (HCOOH) (Table 2): 1.59

SMILES: CCc1ncccc1C(=O)Nc1c(NC(C)C2CC2)ncnc1-c1ccccc1 (stereo not drawn) [1-152]
logP (HCOOH) (Table 2): 1.32

SMILES: O=C(Nc1c(NC2CC2)ncnc1-c1ccccc1)c1cccnc1 [1-128]
logP (HCOOH) (Table 2): 0.63

SMILES: O=C(Nc1c(NC2CC2)ncnc1-c1ccc(C(F)(F)F)cc1)c1cccnc1Cl [1-82]
logP (HCOOH) (Table 2): 1.94

SMILES: CC(C)Oc1ncccc1C(=O)Nc1c(NC2CC2)ncnc1-c1ccc(C#N)cc1 [1-164]
logP (HCOOH) (Table 2): 2.27

SMILES: CCc1ncccc1C(=O)Nc1c(NC2CC2)nc(C)nc1-c1ccc(OC(F)(F)F)cc1 [1-279]
logP (HCOOH) (Table 2): 1.44

SMILES: O=C(Nc1c(NC2CC2)ncnc1-c1ccc(F)cc1)c1ccnn1-c1ccc(F)cc1 [9-1]
IogP (HCOOH): 1.70

SMILES: Cc1nc(C(F)(F)F)ccc1C(=O)Nc1c(NC2CC2)ncnc1-c1ccc(Cl)cc1 [1-199]
logP (HCOOH) (Table 2): 2.35

SMILES: Cc1ccccc1C(=O)Nc1c(NC2CC2)ncnc1-c1ccc(OC(F)(F)F)cc1 [1-72]
logP (HCOOH) (Table 2): 2.35

SMILES: O=C(Nc1c(NC2CC2)ncnc1-c1ccc(OC(F)(F)F)cc1)c1cccnc1Cl [1-75]
logP (HCOOH) (Table 2): 1.99

SMILES: CCc1ncccc1C(=O)Nc1c(NC2CCC2)ncnc1-c1ccc(F)cc1 [1-224]
logP (HCOOH) (Table 2): 1.36

SMILES: O=C(Nc1c(NC2CC2)ncnc1-c1ccc(F)cc1)c1cccnc1Cl [1-129]
logP (HCOOH) (Table 2): 1.27

SMILES: Cc1ncccc1C(=O)Nc1c(NC2CC2)ncnc1-c1ccc(OS(=O)(=O)C(C)C)cc1 [1-121]
logP (HCOOH) (Table 2): 1.15

SMILES: O=C(Nc1c(NC2CC2)ncnc1-c1ccc(Cl)cc1)c1cc(Cl)cnc1C1CC1 [1-197]
logP (HCOOH) (Table 2): 2.52

SMILES: CCc1ncccc1C(=O)Nc1c(NC(C)(C)C)ncnc1-c1ccc(C(F)(F)F)cc1 [1-137]
logP (HCOOH) (Table 2): 2.34

SMILES: O=C(Nc1c(NC2CC2)ncnc1-c1ccc(Cn2cnc(C(F)(F)F)n2)cc1)c1cccnc1C1CC1 [1-287]
logP (HCOOH) (Table 2): 1.45

SMILES: O=C(Nc1c(NC2CC2)ncnc1-c1ccc(Cl)cc1)c1cccnc1C(F)F [1-179]
logP (HCOOH) (Table 2): 1.58

SMILES: CCc1ncccc1C(=O)Nc1c(NC(C)C2CC2)ncnc1-c1ccc(Cl)cc1 (stereo not drawn) [1-144]
logP (HCOOH) (Table 2): 1.62

logP (HCOOH) (Table 4): 0.84
SMILES: CCc1ncccc1C(=O)Nc1c(Br)ncnc1NC1CC1 [3-3]

SMILES: CCc1ncccc1C(=O)Nc1c(NC2CC2)nc(C)nc1-c1ccc(Cl)cc1Cl [1-277]
logP (HCOOH) (Table 2): 1.34

SMILES: O=C(Nc1c(Cl)ncnc1NC1CC1)c1cccnc1OCC(F)(F)F [3-4]
logP (HCOOH) (Table 4): 2.25

SMILES: O=C(Nc1c(NC2CC2)ncnc1-c1ccc(OC(F)(F)F)cc1)c1cccnc1OCC(F)(F)F [1-169]
logP (HCOOH) (Table 2): 2.84

SMILES: O=C(Nc1c(NC2CC2)ncnc1-c1ccc(F)cc1)c1cccnc1C(F)C(F)(F)F (stereo not drawn) [1-308]
logP (HCOOH) (Table 2): 1.83

SMILES: CC(C)c1ncccc1C(=O)Nc1c(NC2CC2)ncnc1-c1ccc(C(F)(F)F)cc1 [1-85]
logP (HCOOH) (Table 2): 2.02

SMILES: O=C(Nc1c(NC(C2CC2)C2CC2)ncnc1-c1ccc(OC(F)(F)F)cc1)c1cccnc1Cl [1-111]
logP (HCOOH) (Table 2): 2.65

SMILES: CCc1ncccc1C(=O)Nc1c(NC(C)(C)C)ncnc1-c1ccc(Cl)cc1Cl [1-142]
logP (HCOOH) (Table 2): 1.89

SMILES: COc1ncccc1C(=O)Nc1c(NC2CC2)ncnc1-c1ccc(Cl)cc1 [1-154]
logP (HCOOH) (Table 2): 1.83

SMILES: Cc1ccccc1C(=O)Nc1c(NC2CC2)ncnc1-c1ccc(C(F)(F)F)cc1 [1-81]
logP (HCOOH) (Table 2): 2.33

SMILES: CCc1ncccc1C(=O)Nc1c(NC2CC2)ncnc1-c1ccc(F)cc1 [1-124]
logP (HCOOH) (Table 2): 1.03

SMILES: CCOc1ncccc1C(=O)Nc1c(NC2CC2)ncnc1-c1ccc(F)cc1 [1-159]
logP (HCOOH) (Table 2): 1.84

SMILES: CCc1ncccc1C(=O)Nc1c(NC(C)C2CC2)ncnc1-c1ccc(C#N)cc1 (stereo not drawn) [1-145]
logP (HCOOH) (Table 2): 1.67

SMILES: Cc1ncccc1C(=O)Nc1c(NC2CC2)ncnc1-c1ccc(C(F)(F)F)cc1 [1-83]
logP (HCOOH) (Table 2): 1.43

SMILES: CCc1ncccc1C(=O)Nc1c(NC2CC2)nc(C)nc1-c1ccc(F)cc1 [1-276]
logP (HCOOH) (Table 2): 0.88

SMILES: O=C(Nc1c(NC2CC2)ncnc1-c1ccc(F)cc1)c1cccnc1C(=O)NC1CC1 [1-262]
logP (HCOOH) (Table 2): 1.45

SMILES: CCc1ncccc1C(=O)Nc1c(NC(C)C(F)(F)F)ncnc1-c1ccc(F)cc1 (stereo not drawn) [1-299]
logP (HCOOH) (Table 2): 1.85

SMILES: CCc1ccccc1C(=O)Nc1c(NC2CC2)ncnc1-c1ccc(C(F)(F)F)cc1 [1-86]
logP (HCOOH) (Table 2): 2.68

SMILES: CC(C)Oc1ncccc1C(=O)Nc1c(NC2CC2)ncnc1-c1ccc(F)cc1 [1-163]
logP (HCOOH) (Table 2): 2.19

SMILES: O=C(Nc1c(Cl)ncnc1NC1CC1)c1cccnc1CC(F)(F)F [3-5]
logP (HCOOH) (Table 4): 1.61

SMILES: CCc1ncccc1C(=O)Nc1c(NC2CC2)ncnc1-c1ccc(F)cc1C [1-180]
logP (HCOOH) (Table 2): 1.10

SMILES: COc1ncccc1C(=O)Nc1c(NC2CC2)ncnc1-c1ccc(OC(F)(F)F)cc1 [1-157]
logP (HCOOH) (Table 2): 2.21

SMILES: CC(C)Nc1ncnc(-c2ccc(OC(F)(F)F)cc2)c1NC(=O)c1cccnc1Cl [1-76]
logP (HCOOH) (Table 2): 2.05

SMILES: CCOc1ncccc1C(=O)Nc1c(NC2CC2)ncnc1-c1ccc(C#N)cc1 [1-160]
logP (HCOOH) (Table 2): 1.80

SMILES: Cc1nc(NC2CC2)c(NC(=O)c2ccccc2Cl)c(-c2ccc(C(F)(F)F)cc2)n1 [1-88]
logP (HCOOH) (Table 2): 1.93

SMILES: CC(C)Oc1ncccc1C(=O)Nc1c(NC2CC2)ncnc1-c1ccc(OC(F)(F)F)cc1 [1-165]
logP (HCOOH) (Table 2): 2.32

SMILES: CCc1ncccc1C(=O)Nc1c(NC(C)(C)C)ncnc1-c1ccc(OC(F)(F)F)cc1 [1-138]
logP (HCOOH) (Table 2): 2.32

SMILES: CCc1ncccc1C(=O)Nc1c(Cl)nc(C)nc1NC1CC1 [3-9]
logP (HCOOH) (Table 4): 1.41

SMILES: O=C(Nc1c(NC2CC2)ncnc1-c1ccc(F)cc1)c1ccnn1-c1ccc(Cl)cc1 [9-2]
IogP (HCOOH): 2.02

SMILES: CCc1ncccc1C(=O)Nc1c(NC2CC2)ncnc1-c1ccc(Cl)cc1C [1-188]
logP (HCOOH) (Table 2): 1.40

SMILES: O=C(Nc1c(NC2CC2)ncnc1-c1ccc(C(F)(F)F)cc1)c1ccccc1Cl [1-80]
logP (HCOOH) (Table 2): 2.33

SMILES: Cc1nc(NC2CC2)c(NC(=O)c2cccnc2C)c(-c2ccc(C(F)(F)F)cc2)n1 [1-87]
logP (HCOOH) (Table 2): 1.27

SMILES: CCc1ncccc1C(=O)Nc1c(NC(C)C2CC2)ncnc1-c1ccc(OC(F)(F)F)cc1 (stereo not drawn) [1-146]
logP (HCOOH) (Table 2): 2.18

SMILES: CCc1ncccc1C(=O)Nc1c(Cl)ncnc1NC1CC1C (stereo not drawn) [3-7]
logP (HCOOH) (Table 4): 1.26

SMILES: CCc1ncccc1C(=O)Nc1c(NC2CC2)ncnc1-c1ccc(Cl)cc1F [1-187]
logP (HCOOH) (Table 2): 1.46

SMILES: O=C(Nc1c(NC2CC2)ncnc1-c1ccc(OC(F)(F)F)cc1)c1ccccc1Cl [1-113]
logP (HCOOH) (Table 2): 2.41

SMILES: CCc1ncccc1C(=O)Nc1c(NC(C)C2(Cl)CC2)ncnc1-c1ccc(Cl)cc1 (stereo not drawn) [1-149]
logP (HCOOH) (Table 2): 2.26

SMILES: O=C(Nc1c(NC2CC2)ncnc1-c1ccc(Cl)cc1)c1ccnn1-c1ccccc1Cl [9-4]
IogP (HCOOH): 2.05

SMILES: CCc1ncccc1C(=O)Nc1c(NC2CC2)ncnc1-c1ccc(Cn2cnc(C(F)(F)F)n2)cc1 [1-273]
logP (HCOOH) (Table 2): 1.11

SMILES: O=C(Nc1c(NC2CC2)ncnc1-c1ccc(Cl)cc1)c1cccnc1OCC(F)(F)F [1-166]
logP (HCOOH) (Table 2): 2.48

SMILES: CCc1nccc(Cl)c1C(=O)Nc1c(NC2CC2)ncnc1-c1ccc(Cl)cc1 [1-316]
logP (HCOOH) (Table 2): 2.54

SMILES: CCc1nccc(Cl)c1C(=O)Nc1c(NC2CC2)ncnc1-c1ccc(F)cc1 [1-315]
logP (HCOOH) (Table 2): 2.18

SMILES: O=C(Nc1c(NC2CC2)ncnc1-c1ccc(Cl)cc1)c1cccnc1Cl [1-130]
logP (HCOOH) (Table 2): 1.55

SMILES: CCc1ncccc1C(=O)Nc1c(NC(C)C2(Cl)CC2)ncnc1-c1ccc(C#N)cc1 (stereo not drawn) [1-150]
logP (HCOOH) (Table 2): 2.08

chromatographic logP (HCOOH (formic acid), Table 6): 2.12
SMILES: CCc1ncccc1C(=O)Nc1c(Cl)ncnc1Nc1ccc(C(F)(F)F)cc1 [5-5, N-(4-Chloro-6-{[4-(trifluoromethyl)phenyl]amino}pyrimidin-5-yl)-2-ethylnicotinamide]

SMILES: O=C(Nc1c(NC2CC2)ncnc1-c1ccc(F)cc1)c1ccnn1-c1ccccc1Cl [9-3]
IogP (HCOOH): 1.76

SMILES: CCc1cccc(Cl)c1C(=O)Nc1c(NC2CC2)ncnc1-c1ccc(C#N)cc1 [1-321]
logP (HCOOH) (Table 2): 2.37

SMILES: CCc1ncccc1C(=O)Nc1c(NC(C)C2(Cl)CC2)ncnc1-c1ccc(F)cc1 (stereo not drawn) [1-147]
logP (HCOOH) (Table 2): 1.95

SMILES: CCOc1ncccc1C(=O)Nc1c(NC2CC2)ncnc1-c1ccc(Cl)cc1 [1-158]
logP (HCOOH) (Table 2): 2.54

SMILES: N#Cc1ccc(-c2ncnc(NC3CC3)c2NC(=O)c2cccnc2OCC(F)(F)F)cc1 [1-168]
logP (HCOOH) (Table 2): 2.11

SMILES: CCc1ncccc1C(=O)Nc1c(NC2CC2)ncnc1-c1ccc(COc2ccc(C(F)(F)F)cn2)cc1 [1-309]
logP (HCOOH) (Table 2): 1.77

SMILES: CCc1ncccc1C(=O)Nc1c(NC(C)(C)C2CC2)ncnc1-c1ccc(Cl)cc1 [1-151]
logP (HCOOH) (Table 2): 2.22

SMILES: CCOc1ncccc1C(=O)Nc1c(NC2CC2)ncnc1-c1ccc(OC(F)(F)F)cc1 [1-161]
logP (HCOOH) (Table 2): 2.64

SMILES: O=C(Nc1c(NC2CC2)ncnc1-c1ccc(F)cc1)c1cc(Cl)cnc1C1CC1 [1-198]
logP (HCOOH) (Table 2): 2.16

SMILES: CCc1ncccc1C(=O)Nc1c(NC2CC2)nc(C)nc1-c1ccccc1 [1-275]
logP (HCOOH) (Table 2): 0.76

SMILES: CCc1ncccc1C(=O)Nc1c(NC2CC2C)ncnc1-c1ccc(Cl)cc1F (stereo not drawn) [1-230]
logP (HCOOH) (Table 2): 1.72

SMILES: Cc1ncccc1C(=O)Nc1c(NC2CC2)ncnc1-c1ccc(SC(F)(F)F)cc1 [1-116]
logP (HCOOH) (Table 2): 1.81

SMILES: CCc1ncccc1C(=O)Nc1c(NC2CC2)ncnc1-c1ccccc1Cl [1-140]
logP (HCOOH) (Table 2): 1.07

SMILES: CCc1nc(C(F)(F)F)ccc1C(=O)Nc1c(NC2CC2)ncnc1-c1ccc(F)cc1 [1-196]
logP (HCOOH) (Table 2): 2.43

SMILES: CC(Nc1ncnc(-c2ccc(OC(F)(F)F)cc2)c1NC(=O)c1cccnc1Cl)C1CC1 (stereo not drawn) [1-99]
logP (HCOOH) (Table 2): 2.44

SMILES: CCc1cccc(C)c1C(=O)Nc1c(NC2CC2)ncnc1-c1ccc(F)cc1 [1-320]
logP (HCOOH) (Table 2): 2.39

SMILES: CCc1ncccc1C(=O)Nc1c(NC(C)(C)C)ncnc1-c1ccc(Cl)cc1 [1-135]
logP (HCOOH) (Table 2): 1.86

SMILES: CCc1ncccc1C(=O)Nc1c(NC2CC2)ncnc1-c1ccccc1C [1-182]
logP (HCOOH) (Table 2): 0.94

SMILES: O=C(Nc1c(NC2CC2)ncnc1-c1ccc(C(F)(F)F)cc1)c1cccnc1C(F)(F)F [1-84]
logP (HCOOH) (Table 2): 2.19

SMILES: O=C(Nc1c(NC2CC2)ncnc1-c1ccc(Cl)cc1)c1c(F)cccc1Cl [1-263]
logP (HCOOH) (Table 2): 2.20

SMILES: O=C(Nc1c(NC2CC2)ncnc1-c1ccc(Cl)cc1)c1cccnc1C(F)(F)F [1-178]
logP (HCOOH) (Table 2): 1.76
